Measured values: patent publication US20110318393A1, “Substituted Pyrazole Compounds” (MIIKANA THERAPEUTICS, INC., priority 2008, published 2011)

Key:
[1] = target: T1, N-terminal His6-tagged recombinant human KDR, residues 790-end (Homo sapiens, UniProt P35968); test: KDR kinase inhibition assay (33P-ATP filter assay); format: biochemical; settings: 40 minutes, room temperature; less than or equal to 100 nM
T1 construct: recombinant human KDR, residues 790-end; His6 (N); purchased Upstate USA Inc, Charlottesville, Va
T1 sequence (P35968 790-1356 limits assumed): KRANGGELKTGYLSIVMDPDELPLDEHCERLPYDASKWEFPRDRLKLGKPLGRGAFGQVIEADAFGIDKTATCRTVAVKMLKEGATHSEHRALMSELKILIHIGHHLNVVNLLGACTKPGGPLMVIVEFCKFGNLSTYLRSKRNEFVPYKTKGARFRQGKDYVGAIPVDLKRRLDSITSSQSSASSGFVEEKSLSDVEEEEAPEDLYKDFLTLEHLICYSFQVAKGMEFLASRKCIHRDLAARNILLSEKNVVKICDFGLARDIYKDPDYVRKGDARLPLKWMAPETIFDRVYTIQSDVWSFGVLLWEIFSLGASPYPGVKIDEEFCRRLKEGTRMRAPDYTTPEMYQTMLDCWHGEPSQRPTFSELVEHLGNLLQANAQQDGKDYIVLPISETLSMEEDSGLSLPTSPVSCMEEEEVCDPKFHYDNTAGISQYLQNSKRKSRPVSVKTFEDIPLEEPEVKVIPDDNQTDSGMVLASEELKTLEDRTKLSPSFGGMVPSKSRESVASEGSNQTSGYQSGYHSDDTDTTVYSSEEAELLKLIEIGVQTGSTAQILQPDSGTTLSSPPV
Procedure: Compounds were assayed for KDR kinase inhibitory activity using N-terminal His6-tagged recombinant human KDR, residues 790-end (Upstate USA Inc, 706 Forest Street, Charlottesville, Va.). Serial dilutions of compound were assayed in a final reaction volume of 25 μL by incubating a solution of the above KDR kinase (5-10 mU), 8 mM MOPS (3-(N-morpholino)propanesulfonic acid) pH 7.0, 0.2 mM EDTA (ethylenediamine tetracetic acid), 0.33 mg/mL myelin basic protein (Upstate USA Inc, 706 Forest Street, Charlottesville, Va.), and 10 mM magnesium acetate and [γ-^33P-ATP] (specific activity of about 500 cpm/pmol, concentration as required). The reaction was initiated by the addition of the magnesium acetate and [γ-^33P-ATP] mixture. After incubation for 40 minutes at room temperature, the reaction was stopped by the addition of 5 μL of a 3% phosphoric acid solution. A 10 μL aliquote of the reaction was then spotted onto a P30 filtermat (PerkinElmer, Wellesley, Mass.) and washed three times for five minutes in 75 mM phosphoric acid and once in methanol prior to drying and scintillation counting. Inhibition of KDR activity was determined by comparison to assays that contained no inhibitor.

[2] = target: T2, recombinant Aurora A (Homo sapiens, UniProt O14965); test: Aurora A (Aurora 2) inhibition assay, Z'-Lyte kinase assay; format: biochemical; settings: ATP 10 μM, 1 h; less than or equal to 100 nM
T2 construct: purchased Upstate, Lake Placid, N.Y
T2 sequence (O14965 1-403): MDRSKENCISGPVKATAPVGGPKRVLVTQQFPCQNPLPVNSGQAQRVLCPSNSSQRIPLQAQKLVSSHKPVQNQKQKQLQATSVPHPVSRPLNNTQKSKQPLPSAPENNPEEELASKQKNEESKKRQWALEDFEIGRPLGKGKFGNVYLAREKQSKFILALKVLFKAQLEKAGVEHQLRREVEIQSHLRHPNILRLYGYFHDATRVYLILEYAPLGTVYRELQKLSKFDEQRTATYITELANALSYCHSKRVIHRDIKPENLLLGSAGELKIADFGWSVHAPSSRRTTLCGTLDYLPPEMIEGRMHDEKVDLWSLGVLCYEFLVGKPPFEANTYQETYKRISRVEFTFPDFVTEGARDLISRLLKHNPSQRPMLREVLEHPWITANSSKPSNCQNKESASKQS
Procedure: Compounds were tested for their potency against recombinant Aurora A (Upstate, Lake Placid, N.Y.) using the PanVera Z′-Lyte kinase assay kit-Ser/Thr 1 peptide (Invitrogen, Carlsbad, Calif.). Assays were carried out in kinase assay buffer (50 mM HEPES, pH 7.5, 10 mM MgCl2, 5 mM EGTA, 0.05% Brij-35, 2 mM DTT). Test compounds were initially dissolved in DMSO at 100× the highest tested concentration, then serially diluted to 4× test concentrations in kinase assay buffer. Next, Aurora A (final concentration 200-500 ng/mL), Z′-Lyte Ser/Thr 1 peptide (final concentration 2 μM) and ATP (final concentration 10 μM) were added according to the manufacturer's instructions. Assays were carried out in half-area 96-well white polystyrene assay plates (Corning, Corning, N.Y.) in a final volume of 20 μl. The reaction was allowed to proceed for 1 h at room temperature in the dark, at which point the development reagent and stop reagent were added according to the manufacturer's instructions. Coumarin (Ex. 400 nm, Em. 465 nm) and fluorescein (Ex. 400 nm, Em. 565 nm) fluorescence values were measured on a SpectraFluor Plus plate reader (Tecan, Durham, N.C.). The emission ratio (coumarin/fluorescein) was determined and used to calculate the percent phosphorylation for each well. Wells containing substrate but no kinase and wells containing a phosphopeptide control were used to set 0% and 100% phosphorylation values, respectively. Typically 20-40% of the substrate was phosphorylated in wells without inhibitor. Dose-response curves of relative Aurora A activity vs. inhibitor concentration were plotted with Grafit (Erithacus Software, Horley, Surrey, UK).

[3] = tested on: HCT-116 cell growth; test: Whole cell cytotoxicity assay: Sulforhodamine B; format: cell-based; settings: Homo sapiens, HCT116, 96 hours, SRB staining, less than or equal to 100 nM
Procedure: Human tumor-derived cell lines, HCT116 or MCF7 (ATCC) were plated in a 96 well plate in DMEM containing 10% fetal bovine serum and 2 mM L-glutamine at a density of 500 HCT116 cells or 1,000 MCF7 cells per well and incubated at 37° C., 5% CO2, for 24 hours prior to the addition of experimental compounds. Compounds were added using the dilution series indicated to duplicate plates and the cells were incubated in media plus compound for 96 hours. An additional plate was fixed in 10% TCA at the time of the addition of compound to provide a measurement of the cell population at time zero, the time of drug addition. […] The absorbance was read at 570 nm. Percentage growth was calculated using the absorbance readings from the time zero plate (Tz) and the dilution series plate […] which included a column of cells grown in media without compound as a control (C) using the formulas: […]
Three dose response parameters were calculated for each experimental agent. […] The drug concentration resulting in total growth inhibition (TGI) was calculated from Ti=Tz. […] Values are calculated for each of these three parameters if the level of activity was reached; however, if the effect was not reached or was exceeded, the value for that parameter is expressed as greater or less than the maximum or minimum concentration tested.

Measured: IC50

Cc1cc(Nc2cc(N3CCC(N4CCCCC4)CC3)nc(/C=C/c3ccccc3)n2)n[nH]1 [Compound 5, (E)-6-(1,4′-bipiperidin-1′-yl)-N-(5-methyl-1H-pyrazol-3-yl)-2-styrylpyrimidin-4-amine]
≤ 100 nM: all assays above

Cc1cc(Nc2cc(N3CCN(c4ccncc4)CC3)nc(/C=C/c3ccccc3)n2)n[nH]1 [Compound 22, (E)-N-(5-methyl-1H-pyrazol-3-yl)-6-(4-(pyridin-4-yl)piperazin-1-yl)-2-styrylpyrimidin-4-amine]
≤ 100 nM: all assays above
